# Legend:
# [1] = tested on: aspartate transcarbamylase; test: In vivo aspartate transcarbamylase activity; design: species or system mouse
# Procedure: (§1) CF1 male mice (~30 g) were implanted with 2×10^6 Ehrlich ascites tumor cells, intraperitoneally on Day 0. Compound I was suspended by homogenation in 0.05% polysorbate.80-water and administered intraperitoneally at 10 and 20 mg/kg for 9 days to determine its effectiveness for inhibition of tumor growth. Mice were sacrificed on Day 10, and the ascites fluid was collected from the peritoneal cavity. The volume and ascrit (packed cell volume) were determined for each animal and the percent inhibition of tumor growth was calculated. For the metabolic studies, mice were treated on Days 8 and 9 with 10 mg/kg of Compound I, intraperitoneally. […]
# (§2) Carbamyl phosphate synthetase activity was determined using the reaction medium of Kalman et al [Am. […] Citrulline formed from ornithine was measured at 490 nm by the method of Archibald [J. Biol. Chem., 156, 121 (1944)]. […] The ^14 CO2 generated in 15 min was trapped in 1M KOH and counted. Thymidylate synthetase activity was determined using a post-mitochondrial supernatant (9000 g×10 min) and 5 μCi of 5-^3 H-deoxyuridine monophosphate (14 Ci/mmol) according to the method of Kampf et al [ J. Med. Chem., 19, 903 (1976)]. ^14 C-Formate incorporation into purines was determined by the method of Spassova et al [Biochem. Pharmacol., 25, 923 (1976)] using 0.5 μCi of ^14 C-formic acid (52.0 mCi/mmol). […] The Rf value for xanthine monophosphate was scraped and counted. […]
# dihydrofolate reductase [2] = biological target: T1, dihydrofolate reductase (Mus musculus, UniProt P00375); test: In vivo dihydrofolate reductase activity
# T1 sequence (P00375 1-187): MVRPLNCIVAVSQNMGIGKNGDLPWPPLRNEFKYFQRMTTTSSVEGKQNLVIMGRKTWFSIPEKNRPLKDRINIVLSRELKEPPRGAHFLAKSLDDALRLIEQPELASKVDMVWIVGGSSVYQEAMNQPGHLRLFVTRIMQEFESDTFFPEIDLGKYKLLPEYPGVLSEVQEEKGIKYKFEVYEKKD
# Procedure: as §1, §2
# [3] = biological target: phosphoribosyl pyrophosphate amidotransferase (Mus musculus, UniProt Q8CIH9); test: In vitro phosphoribosyl pyrophosphate amidotransferase activity; type: biochemical; details: read-out: ID50, Phosphoribosyl pyrophosphate amidotransferase activity
# Procedure: as §1, §2
# dihydrofolate reductase [4] = biological target: T1, dihydrofolate reductase; test: In vitro dihydrofolate reductase activity; type: biochemical; details: 0.25 to 1.0 mM
# Procedure: as §1, §2
# [5] = tested on: thymidylate monophosphate, diphosphate and triphosphate levels of Ehrlich ascites cells; test: In vivo thymidine incorporation into nucleotide pools; design: species or system mouse
# Procedure: CF1 male mice (~30 g) were implanted with 2×10^6 Ehrlich ascites tumor cells, intraperitoneally on Day 0. Compound I was suspended by homogenation in 0.05% polysorbate.80-water and administered intraperitoneally at 10 and 20 mg/kg for 9 days to determine its effectiveness for inhibition of tumor growth. Mice were sacrificed on Day 10, and the ascites fluid was collected from the peritoneal cavity. The volume and ascrit (packed cell volume) were determined for each animal and the percent inhibition of tumor growth was calculated. For the metabolic studies, mice were treated on Days 8 and 9 with 10 mg/kg of Compound I, intraperitoneally. The animal was sacrificed on Day 10 and the ascites fluid harvested. The in vitro metabolic studies were performed at […] final concentration of Compound I.
# Deoxythymidine as well as deoxythymidylate monophosphate and diphosphate kinase activities were measured spectrophotometrically at 340 nm at 30 min using reduced nicotinamide adenine dinucleotide (0.1 μmole). Thymidine incorporation (6-^3 H - 21.5 Ci/mmol) into nucleotides was measured using the medium of Maley and Ochoa [J. Biol. Chem., 223, 1538 (1958)]. The reaction medium was extracted with ether and the aqueous layer plated on PEI cellulose F plates and eluted with 0.5N formic acid: 0.6M LiCl (1:1). Areas which correlated with Rf values of thymidine, thymidylate monophosphate, diphosphate and triphosphate standards were scraped and counted.
# [6] = 10 mg/kg/day I.P. on Days 8 and 9
# Sequence of phosphoribosyl pyrophosphate amidotransferase (Q8CIH9 12-517): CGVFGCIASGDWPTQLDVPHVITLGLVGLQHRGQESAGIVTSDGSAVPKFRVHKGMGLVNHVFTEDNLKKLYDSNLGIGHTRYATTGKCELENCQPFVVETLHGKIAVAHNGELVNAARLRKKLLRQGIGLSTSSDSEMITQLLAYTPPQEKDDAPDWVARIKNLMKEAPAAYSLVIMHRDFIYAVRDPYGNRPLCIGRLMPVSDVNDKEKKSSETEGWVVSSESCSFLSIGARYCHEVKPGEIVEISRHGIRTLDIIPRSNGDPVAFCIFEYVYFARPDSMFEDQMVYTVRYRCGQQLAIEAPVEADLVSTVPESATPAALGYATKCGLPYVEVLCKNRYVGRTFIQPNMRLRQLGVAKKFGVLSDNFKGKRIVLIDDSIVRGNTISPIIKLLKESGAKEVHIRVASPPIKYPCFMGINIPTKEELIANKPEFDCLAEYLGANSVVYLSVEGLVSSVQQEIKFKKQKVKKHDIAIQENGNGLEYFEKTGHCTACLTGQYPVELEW
substance,measurement,setting,value
{Cu[(CH3)3 N.BH2 CO2 ]2.(CH3)3 N.BH2 COOH} [Compound I],Aspartate carbamyl transferase activity suppressed,[1],11%
same,Aspartate transcarbamylase activity,[1]; [6],89 ± 8 % Control
same,Dihydrofolate reductase activity inhibited,dihydrofolate reductase [2],25%
same,Dihydrofolate reductase activity,dihydrofolate reductase [2]; [6],75 ± 6 % Control
same,IC50,[3],523 µM
same,dihydrofolate reductase inhibition,dihydrofolate reductase [4],not inhibited
same,3H-Thymidine incorporation into thymidylate monophosphate pool reduced,[5],57%
same,TDP pool reduced,[5],19%
same,TTP pool reduced,[5],10%
same,Thymidylate diphosphate levels,[5]; [6],89 ± 11 % Control
same,Thymidylate monophosphate levels,[5]; [6],43 ± 6 % Control
same,Thymidylate triphosphate levels,[5]; [6],90 ± 10 % Control

# Source: patent US4550186A, “Binuclear copper (II) carboxylates formed from amine-carboxyboranes” (Duke University, priority 1983, dated 1985)
